Key:
5-HT1A [1] = biological target: T1, 5-HT1A (Rattus norvegicus, UniProt P19327); assay: Fixed Responding Model, in vivo 5-HT1A antagonism of 8-OH-DPAT-induced decrease in response rate; design: species or system rats
T1 construct: from tissue; host or cells: whole animal (rat), behavioural model
T1 sequence (P19327 1-422): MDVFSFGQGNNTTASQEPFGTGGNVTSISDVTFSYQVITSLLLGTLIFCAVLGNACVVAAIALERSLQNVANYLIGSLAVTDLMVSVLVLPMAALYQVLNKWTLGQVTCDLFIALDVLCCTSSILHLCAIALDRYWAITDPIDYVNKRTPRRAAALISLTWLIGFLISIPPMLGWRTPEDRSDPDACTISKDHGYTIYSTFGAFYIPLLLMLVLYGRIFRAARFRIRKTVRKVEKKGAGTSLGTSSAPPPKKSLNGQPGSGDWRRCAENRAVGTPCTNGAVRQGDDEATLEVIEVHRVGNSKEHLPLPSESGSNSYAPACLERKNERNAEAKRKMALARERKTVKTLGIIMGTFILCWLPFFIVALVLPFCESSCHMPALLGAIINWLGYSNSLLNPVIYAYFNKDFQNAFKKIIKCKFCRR
Procedure: The ability of the compounds to function in vivo as 5-HT1A antagonists was assessed in rats using a Fixed Responding Model (D. Blackman, in “Operant Conditioning: An Experimental Analysis of Behavior”, J. Butcher, ed., Methuen and Co., Ltd., London). In this model rats are trained to respond (lever pressing) under a fixed-ratio 30 schedule of food presentation in order to receive a food pellet reinforcer. […] The 5-HT1A antagonist activity of a test compound is determined by measuring its ability to antagonize this agonist-induced decrease in response rate.

[2] = biological target: T2, cloned human 5-HT1A receptors (Homo sapiens, UniProt P08908); assay: Binding to cloned human 5-HT1A receptors in CHO cells, [3H]8-OH-DPAT radioligand; conditions: read-out: 5-HT1A Affinity Ki
T2 construct: expressed in transfected cells; host or cells: CHO cells
T2 sequence (P08908 1-422): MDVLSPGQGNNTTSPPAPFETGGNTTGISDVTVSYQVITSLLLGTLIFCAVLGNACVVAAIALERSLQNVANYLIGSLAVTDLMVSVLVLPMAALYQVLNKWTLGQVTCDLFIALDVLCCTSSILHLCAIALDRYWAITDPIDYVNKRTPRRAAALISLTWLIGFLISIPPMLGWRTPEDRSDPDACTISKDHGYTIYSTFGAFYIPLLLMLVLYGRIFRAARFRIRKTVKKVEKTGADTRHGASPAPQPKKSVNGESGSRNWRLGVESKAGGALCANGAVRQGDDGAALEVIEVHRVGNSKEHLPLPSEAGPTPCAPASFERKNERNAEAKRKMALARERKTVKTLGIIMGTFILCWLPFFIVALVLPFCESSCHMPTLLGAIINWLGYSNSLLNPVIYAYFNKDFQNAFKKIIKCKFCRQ

5-HT1A [3] = biological target: T1, 5-HT1A; assay: Duration of action in the Fixed Responding Model; assay type: in vivo, rats
Description: All drug and vehicle administrations were made by the subcutaneous route.

human 5-HT1A receptor = biological target: T3, human 5-HT1A receptor (Homo sapiens, UniProt P08908); assay: In vitro functional activity: antagonism of 8-OH-DPAT inhibition of forskolin-stimulated cAMP production; assay type: cell-based; conditions: antagonism of 10 nM 8-OH-DPAT inhibition of forskolin-stimulated cAMP production; read-out: 5-HT1A Antagonist Activity cAMP Assay IC50
T3 construct: expressed in transfected cells
T3 sequence (P08908 1-422): T2 sequence (P08908 1-422)

[4] = test system: sexually experienced male rats (Sprague-Dawley rats); assay: Non-contact penile erections in sexually experienced male rats (animal model of drug-induced sexual dysfunction); assay type: in vivo; conditions: for Reversal of fluoxetine-induced sexual dysfunction: administered acutely after 7 or 14 days of fluoxetine treatment; for Prevention of deficit in non-contact penile erections produced by chronic fluoxetine: co-administered with fluoxetine 10 mg/kg for 7 or 14 days, Example compound 3 1 mg/kg, Example compound 2 0.3 mg/kg
Procedure: The animal model is based on the finding that sexually experienced rats that are administered an SSRI, a drug used to treat certain conditions such as depression, display a reduction in the number of non-contact penile erections. SSRI treatment is associated with sexual dysfunction in human subjects. In general, the animal model exposes sexually experienced male rats (Sprague-Dawley rats) to female rats in estrous in a novel testing arena that is not the regular housing environment.
The ability of various drugs associated with sexual dysfunction in humans to cause sexual dysfunction in the animal model was tested using three different drugs, bupropion (20 mg/kg), desipramine (10 mg/kg), and fluoxetine (10 mg/kg), or vehicle alone (0.9% saline), each administered intraperitoneally (i.p.), once per day for 14 days. After the treatment period, animals were tested for the frequency of non-contact penile erections over a 30 minute trial period.
To examine the time course of the effects of a drug that causes sexual dysfunction, rats that were handled and tested as described above were treated acutely: rats were treated with vehicle for 6 days, and on the test day (day 7) instead of vehicle, the animals received a single dose of fluoxetine in vehicle (i.p.). For a subchronic (7 day) study, fluoxetine was administered each day for 7 days and the animals were evaluated on test day 7. For the chronic 14 day study, fluoxetine was administered each day for 14 days and the animals were tested on day 14. Each fluoxetine dose was 10 mg/kg in vehicle and was delivered i.p. on each of the test days as described above.
To test the ability of a 5-HT1A antagonist to ameliorate the effects of sexual dysfunction, sexually experienced rats were administered an SSRI using an acute or subchronic (7 day) schedule and then tested for sexual function as described above.
In these experiments, rats were treated with vehicle only on days 1-13 then administered a single acute dose of 0.1 mg/kg of the compound (group 1), vehicle only for days 1-13 and a single dose of 1.0 mg/kg compound in vehicle on day 14 (group 2), only vehicle on days 1-14 (group 3), fluoxetine on days 1-14 (group 4), fluoxetine on days 1-13 and a single administration of 0.1 mg/kg of the compound and fluoxetine on day 14 (group 5); and fluoxetine on days 1-13 and a single dose of 1.0 mg/kg compound with fluoxetine on day 14 (group 6). For each group, behavior testing was performed for 30 minutes immediately following drug administration on day 14 only.
Experiments were conducted to assess the ability of a 5-HT1A antagonist to prevent the effects of SSRI treatment. Rats, as described supra, were co-administered a 5-HT1A antagonist and an SSRI. […] The administered SSRI was fluoxetine (10 mg/kg). The 5-HT1A antagonist and SSRI were co-administered for 7 or 14 days with the SSRI.

With `C[C@H](CN(C(=O)c1ccc(C#N)cc1)c1ccccn1)N1CCN(c2cccc3c2OCCO3)CC1` [Example 1, (R)-4-Cyano-N-{2-[4-(2,3-Dihydro-Benzo[1,4]dioxin-5-yl)-Piperazin-1-yl]-Propyl}-N-Pyridin-2-yl-Benzamide] the “Reversal of decrease in response rate induced by 8-OH-DPAT” value (5-HT1A [1]; 1 mg/kg dose, 0.3 mg/kg 8-OH-DPAT) was “completely reverses”, the “Response Rate” value (5-HT1A [1]; 8-OH-DPAT (0.3 mg/kg sc) + Example compound 1 (1 mg/kg sc), vehicle control 2.4 ± 0.5) was 2.5 ± 0.2 responses/second and the Ki [2] was 1.6 nM. For the same compound, the “Antagonism of agonist-induced decrease in responding” value (5-HT1A [3]; 30 minutes after administration) was “completely antagonize”, the Duration of action (5-HT1A [3]; Fixed Responding Model, sc) was greater than 4 h and the “Dose Which Shifts Agonist Dose-response Curve by 10-fold” value (5-HT1A [3]; administered 30 minutes prior to 8-OH-DPAT) was 1.0 mg/kg, sc. The “5-HT1A antagonist effect on response rate” value (5-HT1A [3]; agonist given 2 hours following test drug administration) was “complete 5-HT1A antagonist effects”, the “5-HT1A antagonist effect on response rate” value (5-HT1A [3]; four hours post-administration) was “complete antagonism” and the “% Response Rate, 0.5 hour pretreatment” value (5-HT1A [3]; test compound sc (Table 3 dose) 0.5 hour before 0.3 mg/kg 8-OH-DPAT, 100% = vehicle control response rate) was 100 ± 7%. For the same compound, the “% Response Rate, 2 hour pretreatment” value (5-HT1A [3]; test compound sc (Table 3 dose) 2 hours before 0.3 mg/kg 8-OH-DPAT, 100% = vehicle control response rate) was 118 ± 13%, the “% Response Rate, 4 hour pretreatment” value (5-HT1A [3]; test compound sc (Table 3 dose) 4 hours before 0.3 mg/kg 8-OH-DPAT, 100% = vehicle control response rate) was 99 ± 16% and the IC50 (human 5-HT1A receptor) was 25 nM.
`COc1ccccc1N1CCN(CCN(C(=O)C2CCCCC2)c2ccccn2)CC1` [Example compound 2, N-[2-[4-(2-methoxyphenyl)-1-piperazinyl]ethyl]-N-(2-pyridinyl)cyclohexanecarboxamide] was tested, and the “Reversal of fluoxetine-induced sexual dysfunction” value [4] was “complete and significant reversal”, the “Prevention of deficit in non-contact penile erections produced by chronic fluoxetine” value [4] was “prevented the deficit in non-contact penile erections” and the “Effect on drug-induced sexual dysfunction” value ([4]; single acute dose after a period of drug-induced sexual dysfunction) was “ameliorated sexual dysfunction”.
`CNCCC(Oc1ccc(C(F)(F)F)cc1)c1ccccc1` (stereo not drawn) [fluoxetine, N-methyl-3-(p-trifluoromethylphenoxy)-3-phenylpropylamine, reference compound] was tested, and the “Sexual dysfunction (number of non-contact penile erections in 30 minutes)” value ([4]; chronic (14 days) fluoxetine 10 mg/kg i.p.) was “significant increase in sexual dysfunction” and the “Sexual dysfunction (number of non-contact penile erections in 30 minutes)” value ([4]; sub-chronic (7 days) fluoxetine 10 mg/kg i.p.) was “significant increase in sexual dysfunction”.
In the case of “(R)-N-(2-methyl-(4-indolyl-1-piperazinyl)ethyl)-N-(2-pyridinyl)cyclohexanecarboxamide [Example compound 3]”, the “Reversal of fluoxetine-induced sexual dysfunction” value [4] is reported as “complete and significant reversal”, the “Prevention of deficit in non-contact penile erections produced by chronic fluoxetine” value [4] is reported as “prevented the deficit in non-contact penile erections” and the “Reversal of deficits in number of non-contact penile erections” value ([4]; single dose 0.1 mg/kg on day 14 of fluoxetine 10 mg/kg/day i.p.) is reported as “full reversal”. For the same compound, the “Reversal of deficits in number of non-contact penile erections” value ([4]; single dose 1.0 mg/kg on day 14 of fluoxetine 10 mg/kg/day i.p.) was “full reversal”.

Reference: US7425558B2, “Serotonergic agents for treating sexual dysfunction” (Wyeth, priority 2000, dated 2008)
